# Literature values, collected in PMC7767166, “Imidazole and Imidazolium Antibacterial Drugs Derived from Amino Acids” (Pharmaceuticals, 2020).
# Marks after values point to notes of the source that are not given here.
# Tests used:
# B. subtilis = system: B. subtilis; design: method as in PMID 26777771; settings: cited from earlier work
# MRC-5 cells = system: MRC-5 cells; design: method as in PMID 19407848; settings: cited from earlier work
substance,measurement,setting,value
Alamethicin,B. subtilis MIC,B. subtilis,16 µg/mL
same,IC50 (cytotoxicity against MRC-5 cells),MRC-5 cells,62.5 ^f [42] μg/mL
